The results in this text go back to ChEMBL document CHEMBL1833951, “Diterpenes from the Hainan soft coral Lobophytum cristatum Tixier-Durivault” (J Nat Prod, 2011).

One assay has as its system HCT-116. Briefly: Cytotoxicity against human HCT116 cells by SRB assay. Type of assay: functional, cell-based.
Another assay has as its system A549. Briefly: Cytotoxicity against human A549 cells by MTT assay. Type of assay: functional, cell-based.

Regarding `C=C(CCC=C(C)C)[C@H]1CC[C@@]2(C)CCC=C(C)[C@@H]2C1` [LOBOPHYTUMIN D], the IC50 was determined as 35.7 µM in the assay on HCT-116 and 36.7 µM with A549.

In the case of `COC(=O)Nc1nc2cc(C(=O)c3cccs3)ccc2[nH]1` [NOCODAZOLE], the IC50 with HCT-116 is 0.173 µM; with A549, 0.087 µM.

Take `C=C(CCC=C(C)C)[C@H]1CC[C@]2(C)CCCC(=C)[C@H]2C1` [LOBOPHYTUMIN C]: the results for the IC50 in the assay with HCT-116 and in the assay with A549 were 37.1 µM and 35.7 µM, respectively.
